We go through 2 compounds from patent US20080275058A1, “N-Substituted-1H-Quinoline-2,4-Diones, Preparation Method Thereof, And Pharmaceutical Composition Containing The Same” (KOREA RESEARCH INSTITUTE OF CHEMICAL TECHNOLOGY, priority 2005, published 2008).

Bounds are passed on as bounds.

One series concerns the target T1, 5-HT1a (Homo sapiens, UniProt P08908).
T1 construct: purchased Euroscreen/BioSignal Packard Inc
T1 sequence (P08908 1-422): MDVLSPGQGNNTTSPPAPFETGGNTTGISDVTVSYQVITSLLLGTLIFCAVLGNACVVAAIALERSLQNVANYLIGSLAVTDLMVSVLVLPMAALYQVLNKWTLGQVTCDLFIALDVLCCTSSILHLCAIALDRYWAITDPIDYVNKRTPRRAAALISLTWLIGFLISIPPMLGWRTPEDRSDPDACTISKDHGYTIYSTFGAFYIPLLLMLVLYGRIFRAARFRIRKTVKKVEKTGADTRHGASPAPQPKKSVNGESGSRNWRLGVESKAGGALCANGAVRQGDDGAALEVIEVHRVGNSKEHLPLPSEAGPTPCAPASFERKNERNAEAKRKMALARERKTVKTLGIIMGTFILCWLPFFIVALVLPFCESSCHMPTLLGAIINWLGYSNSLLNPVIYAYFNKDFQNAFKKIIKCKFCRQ
As to the kind of experiment: Radioligand binding, 5-HT1a ([3H]8-OH-DPAT). The following applies: Table 4; [3H]8-OH-DPAT 0.5 nM; read-out: Binding affinity, IC50 (nM) 5-HT1a. An outline of the steps:
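Receptor-expressing membranes were obtained commercially, and the displacement of radiolabel was then carried out as the supplier's method specifies.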

A further series has as its target T2, hD3 (Homo sapiens, UniProt P35462).
T2 construct: purchased BioSignal Packard Inc., Montreal, Canada
In words: Radioligand binding, dopamine D3 ([3H]spiperone). The following applies: Table 4; [3H]spiperone 1 nM; read-out: Binding affinity, IC50 (nM) D3. In outline:
(§1)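 Membrane competition binding with [3H]spiperone (1 nM) for hD2L and hD3, or [3H]YM-09151-2 (0.06 nM) for hD4.2, each in receptor-specific Tris-HCl pH 7.4 buffer containing Mg2+/EDTA (D3 and D4 also with K+, Ca2+; D3 with 120 mM NaCl). Compounds were tested at 7-8 concentrations in duplicate, and IC50 was derived by nonlinear regression across three assays.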

A further series concerns the target T3, hD2L (Homo sapiens, UniProt P14416).
T3 construct: purchased BioSignal Packard Inc., Montreal, Canada
As to the kind of experiment: Radioligand binding, dopamine D2 ([3H]spiperone). To be noted: Table 4; [3H]spiperone 1 nM; read-out: Binding affinity, IC50 (nM) D2. An outline of the steps:
as §1

The next series has as its target T4, hD4.2 receptor (Homo sapiens, UniProt P21917, DEL265-296).
T4 construct: purchased BioSignal Packard Inc., Montreal, Canada
T4 sequence (P21917 with tags, fused parts or gaps DEL265-296): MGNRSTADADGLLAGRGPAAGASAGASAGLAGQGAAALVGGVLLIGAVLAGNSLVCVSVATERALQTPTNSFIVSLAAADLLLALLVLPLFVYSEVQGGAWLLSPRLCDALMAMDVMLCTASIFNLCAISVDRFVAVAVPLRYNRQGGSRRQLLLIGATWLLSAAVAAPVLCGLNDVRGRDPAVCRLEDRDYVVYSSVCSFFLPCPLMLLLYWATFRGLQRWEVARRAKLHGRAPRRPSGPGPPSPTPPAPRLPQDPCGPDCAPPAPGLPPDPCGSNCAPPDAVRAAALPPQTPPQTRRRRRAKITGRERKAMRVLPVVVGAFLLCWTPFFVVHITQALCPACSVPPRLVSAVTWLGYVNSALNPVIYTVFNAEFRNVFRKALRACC
As to the kind of experiment: Radioligand binding, dopamine D4 ([3H]YM-09151-2). To be noted: Table 4; [3H]YM-09151-2 0.06 nM; read-out: Binding affinity, IC50 (nM) D4. An outline of the steps: as §1

The next series in a line: Rotarod deficit in mice. In kind it is in vivo, mouse. The following applies: mouse, in vivo, po, unit printed as image, read-out: TD50 (median neurotoxic dose). An outline of the steps:
(§2)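 Compounds suspended in 3% Tween 80 were given p.o. to mice 60 min before testing. Rotarod deficit (%) was the proportion of animals falling within 1 min from a 1 inch knurled rod turning at 6 rpm, scored at 60, 90 and 120 min after dosing.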
(In general: Falling from the rotarod earlier than controls is read as motor impairment.)

Another series relates to mice. As to the kind of experiment: Rotarod deficit in mice. In kind it is in vivo, mouse. An outline of the steps: as §2
For another series, the target named is T5, 5-HT7 (Homo sapiens, UniProt P34969).
T5 construct: purchased Euroscreen/BioSignal Packard Inc
T5 sequence (P34969 whole entry): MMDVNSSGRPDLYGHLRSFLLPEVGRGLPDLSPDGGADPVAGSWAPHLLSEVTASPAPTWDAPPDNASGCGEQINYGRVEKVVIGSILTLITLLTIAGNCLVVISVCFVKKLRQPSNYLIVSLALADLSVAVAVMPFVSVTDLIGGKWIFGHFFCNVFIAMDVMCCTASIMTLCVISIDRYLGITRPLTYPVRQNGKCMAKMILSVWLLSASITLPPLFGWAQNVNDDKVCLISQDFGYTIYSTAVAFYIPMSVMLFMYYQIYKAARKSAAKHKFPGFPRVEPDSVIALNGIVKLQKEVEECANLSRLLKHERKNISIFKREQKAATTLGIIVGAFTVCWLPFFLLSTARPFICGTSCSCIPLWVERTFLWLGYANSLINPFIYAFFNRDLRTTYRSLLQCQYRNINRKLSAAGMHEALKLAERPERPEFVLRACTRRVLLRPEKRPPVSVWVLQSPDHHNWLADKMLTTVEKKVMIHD
As to the kind of experiment: Radioligand binding, 5-HT7 ([3H]LSD). The following applies: Table 4; [3H]LSD 3 nM; read-out: Binding affinity, IC50 (nM) 5-HT7.

For another series, the target named is T6, 5-HT2c (Homo sapiens, UniProt P28335).
T6 construct: purchased Euroscreen/BioSignal Packard Inc
T6 sequence (P28335 33-458): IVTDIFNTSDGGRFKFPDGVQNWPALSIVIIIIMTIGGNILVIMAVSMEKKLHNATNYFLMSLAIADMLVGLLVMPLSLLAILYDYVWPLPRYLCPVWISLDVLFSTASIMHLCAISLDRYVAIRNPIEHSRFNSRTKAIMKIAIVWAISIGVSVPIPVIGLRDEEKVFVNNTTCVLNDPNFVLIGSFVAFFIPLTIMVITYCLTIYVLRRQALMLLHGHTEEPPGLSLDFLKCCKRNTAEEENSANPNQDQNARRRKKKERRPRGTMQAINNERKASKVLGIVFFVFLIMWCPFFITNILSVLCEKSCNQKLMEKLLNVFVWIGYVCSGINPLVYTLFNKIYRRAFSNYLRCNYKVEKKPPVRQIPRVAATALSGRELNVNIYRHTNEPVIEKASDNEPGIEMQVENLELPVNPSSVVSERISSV
As to the kind of experiment: Radioligand binding, 5-HT2c ([3H]Mesulergine). The following applies: Table 4; [3H]Mesulergine 1 nM; read-out: Binding affinity, IC50 (nM) 5-HT2c.

The target of the next series is 5-HT6 receptors (Homo sapiens, UniProt P50406). As to the kind of experiment: Adenylyl cyclase activity (cAMP accumulation) in HeLa cells transfected with human 5-HT6 receptor. Type of series: cell-based. To be noted: for increase in cAMP level inhibited (FIG. 1): 5-HT-induced cAMP increase. On the technique in general: cAMP levels reflect the balance of adenylyl cyclase and phosphodiesterase activity.
Sequence of 5-HT6 receptors (P50406 whole entry): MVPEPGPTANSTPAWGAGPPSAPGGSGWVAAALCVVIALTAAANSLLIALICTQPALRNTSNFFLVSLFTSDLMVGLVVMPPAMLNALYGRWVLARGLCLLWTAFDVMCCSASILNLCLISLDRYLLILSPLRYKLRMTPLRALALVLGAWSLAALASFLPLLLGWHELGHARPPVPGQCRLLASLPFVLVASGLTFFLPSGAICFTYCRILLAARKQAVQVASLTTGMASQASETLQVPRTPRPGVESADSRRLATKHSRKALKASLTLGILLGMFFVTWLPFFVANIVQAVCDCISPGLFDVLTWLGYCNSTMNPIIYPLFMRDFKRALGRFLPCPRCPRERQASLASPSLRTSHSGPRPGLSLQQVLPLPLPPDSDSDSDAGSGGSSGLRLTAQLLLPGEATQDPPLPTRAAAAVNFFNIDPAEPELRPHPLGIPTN

Where [1] appears, read: HeLa, read-out: inhibition of 0.3 μM serotonin (5-HT)-induced increase in cAMP levels.

T3 sequence (P14416 whole entry): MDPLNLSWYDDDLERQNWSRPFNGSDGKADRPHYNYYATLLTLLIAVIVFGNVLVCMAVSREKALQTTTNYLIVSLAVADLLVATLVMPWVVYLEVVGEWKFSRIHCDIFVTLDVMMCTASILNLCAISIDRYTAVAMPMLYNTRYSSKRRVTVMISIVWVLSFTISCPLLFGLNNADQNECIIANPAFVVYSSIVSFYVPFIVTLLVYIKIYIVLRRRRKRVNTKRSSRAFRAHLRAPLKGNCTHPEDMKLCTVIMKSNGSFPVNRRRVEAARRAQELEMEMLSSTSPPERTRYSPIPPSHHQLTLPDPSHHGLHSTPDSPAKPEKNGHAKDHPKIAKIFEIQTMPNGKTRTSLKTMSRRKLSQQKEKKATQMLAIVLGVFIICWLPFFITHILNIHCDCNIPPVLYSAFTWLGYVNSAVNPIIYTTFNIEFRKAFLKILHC
T2 sequence (P35462 whole entry): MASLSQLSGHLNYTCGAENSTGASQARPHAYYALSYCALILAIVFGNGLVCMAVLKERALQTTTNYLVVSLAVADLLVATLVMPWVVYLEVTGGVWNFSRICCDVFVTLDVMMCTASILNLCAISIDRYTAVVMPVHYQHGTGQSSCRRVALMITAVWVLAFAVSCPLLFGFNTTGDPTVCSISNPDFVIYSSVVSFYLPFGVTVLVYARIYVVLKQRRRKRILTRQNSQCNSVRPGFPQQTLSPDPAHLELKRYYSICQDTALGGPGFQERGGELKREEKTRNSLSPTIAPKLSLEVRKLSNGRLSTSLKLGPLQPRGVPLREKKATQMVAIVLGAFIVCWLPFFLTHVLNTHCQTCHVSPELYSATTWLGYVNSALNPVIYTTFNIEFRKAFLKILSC

For the compound `CC1(c2ccc(O)cc2)C(=O)c2c(N3CCNCC3)cc(Cl)cc2N(Cc2ccccc2)C1=O` (racemic) [Example 14, 1-Benzyl-7-chloro-3-(4-hydroxy-phenyl)-3-methyl-5-piperazin-1-yl-1H-quinoline-2,4-dione], the melting point (as a rule, the temperature, or range, at which the solid turns liquid) lay in the range of 197 to 200 °C. In addition, the IC50 (in general, the concentration that inhibits the measured activity by half) at 5-HT1a was above 10000 nM. Moreover, the IC50 at hD3 was 1500 nM. Also, on hD2L, the IC50 is above 10000 nM. Moreover, the IC50 on hD4.2 receptor is above 10000 nM. For the same compound, the TD50 (usually the 50% point of the dose-response relation for the toxic effect studied) at 120 min in the series “Rotarod deficit in mice” was above 400 mg/kg. Also, in the series with mice (200 p.o. (dose unit not given)), the “Rotarod deficit (%)” value was determined as 0%. In addition, the “Rotarod deficit (%)” value in the series on mice (300 p.o. (dose unit not given)) came to 0%. In the series on mice (400 p.o. (dose unit not given)), the “Rotarod deficit (%)” value was 0%. The IC50 at 5-HT7 turned out to be 3570 nM. In addition, the IC50 at 5-HT2c was above 10000 nM. Moreover, on 5-HT6 receptors, 28.7 nM corresponded to half-maximal inhibition (IC50) and the “increase in cAMP level inhibited (FIG. 1)” value is on record as “inhibited”. In addition, at 5-HT6 receptors (setting [1]), the inhibition – broadly, the share of the control response that was lost under treatment – at 0.001 µM came to 10%; the inhibition at 0.01 µM was found to be 22%; the inhibition at 0.1 µM worked out at 81%; the inhibition at 1 µM is 100%. Further, at 5-HT6 receptors (setting [1]), the inhibition at 10 µM is 100%.

`COc1ccc(C2(C)C(=O)c3c(N4CCNCC4)cc(Cl)cc3N(Cc3ccccc3)C2=O)cc1` (racemic) [Example 13, 1-Benzyl-7-chloro-3-(4-methoxy-phenyl)-3-methyl-5-piperazin-1-yl-1H-quinoline-2,4-dione] had a melting point of 120 to 123 °C. Further, the IC50 at 5-HT1a came out at 1360 nM. For the same compound, the IC50 at hD3 amounted to 345 nM. The IC50 on hD2L was above 10000 nM. Also, the half-maximal inhibitory concentration (IC50) at hD4.2 receptor is above 10000 nM. For the same compound, in “Rotarod deficit in mice”, the TD50 at 120 min is above 400 mg/kg. Moreover, the “Rotarod deficit (%)” value in the series on mice (200 p.o. (dose unit not given)) is listed as 0%. In the series with mice (300 p.o. (dose unit not given)), the “Rotarod deficit (%)” value stood at 0%. Also, in the series with mice (400 p.o. (dose unit not given)), the “Rotarod deficit (%)” value was 0%. Further, at 5-HT7, the IC50 was 9000 nM. Also, the IC50 on 5-HT2c is 437 nM. Further, at 5-HT6 receptors, the “increase in cAMP level inhibited (FIG. 1)” value is “inhibited”.
